This data set in a line: solubility in water. Format: physicochemical.

Experimental findings from patent EP2253629A1, “Polymorphs of racemic sunitinib malate, compositions containing them and preparation thereof” (Teva Pharmaceutical Industries Ltd., priority 2007, dated 2009) are described below.

Broadly, the solubility is the dissolved amount per volume that the medium holds. High values mean a readily soluble substance, low ones a poorly soluble substance.

Each structure is given as a SMILES string.

With `CCN(CC)CCNC(=O)c1c(C)[nH]c(/C=C2\C(=O)Nc3ccc(F)cc32)c1C` [sunitinib base form VIII, N-[2-(diethylamino)ethyl]-5-[(Z)-(5-fluoro-1,2-dihydro-2-oxo-3H-indol-3-ylidine)methyl]-2,4-dimethyl-1 H-pyrrole-3-carboxamide], the solubility is under 1000 µg/mL.
